The source of these data is ChEMBL document CHEMBL3860064, “Synthesis of (benzimidazol-2-yl)aniline derivatives as glycogen phosphorylase inhibitors” (Bioorg Med Chem, 2016).

A short description of series [1]: Solubility of the compound in water. The conditions noted are these: buffer. The class given is physicochemical.
Series [2] can be described thus: Aqueous solubility of the compound in 20% DMSO. The class given is physicochemical. The conditions noted are these: buffer.
Series [3] deals with T1, Glycogen phosphorylase, muscle form (Oryctolagus cuniculus, UniProt P00489).
T1 sequence (P00489 whole entry): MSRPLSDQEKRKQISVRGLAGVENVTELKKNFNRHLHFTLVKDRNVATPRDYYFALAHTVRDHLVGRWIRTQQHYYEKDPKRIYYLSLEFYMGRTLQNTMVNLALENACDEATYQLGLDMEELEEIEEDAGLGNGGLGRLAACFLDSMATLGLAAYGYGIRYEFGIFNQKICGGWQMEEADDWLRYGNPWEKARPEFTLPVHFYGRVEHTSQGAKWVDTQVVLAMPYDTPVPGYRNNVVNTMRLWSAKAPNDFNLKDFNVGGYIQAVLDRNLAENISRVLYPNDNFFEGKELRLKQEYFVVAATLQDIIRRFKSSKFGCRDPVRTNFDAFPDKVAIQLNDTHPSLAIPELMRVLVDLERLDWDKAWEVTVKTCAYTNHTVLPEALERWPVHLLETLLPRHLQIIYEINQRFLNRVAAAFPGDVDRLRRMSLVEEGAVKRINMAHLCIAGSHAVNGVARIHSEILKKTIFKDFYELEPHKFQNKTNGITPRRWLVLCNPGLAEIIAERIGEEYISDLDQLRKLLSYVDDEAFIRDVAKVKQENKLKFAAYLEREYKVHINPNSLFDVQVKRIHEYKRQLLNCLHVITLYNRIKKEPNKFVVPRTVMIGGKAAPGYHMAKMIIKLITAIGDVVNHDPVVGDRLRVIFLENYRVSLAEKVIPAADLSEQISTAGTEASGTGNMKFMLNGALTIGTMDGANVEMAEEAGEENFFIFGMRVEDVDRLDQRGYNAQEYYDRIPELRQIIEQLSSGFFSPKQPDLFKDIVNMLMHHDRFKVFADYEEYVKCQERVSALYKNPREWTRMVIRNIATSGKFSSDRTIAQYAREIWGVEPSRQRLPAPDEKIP
Nature of the series: Inhibition of rabbit skeletal muscle glycogen phosphorylase b assessed as reduction in inorganic phosphate release using glucose-1-phosphate as substrate at pH 6.8.

The target in series [4] is T2, Glycogen phosphorylase, liver form (Homo sapiens, UniProt P06737).
T2 sequence (P06737 whole entry): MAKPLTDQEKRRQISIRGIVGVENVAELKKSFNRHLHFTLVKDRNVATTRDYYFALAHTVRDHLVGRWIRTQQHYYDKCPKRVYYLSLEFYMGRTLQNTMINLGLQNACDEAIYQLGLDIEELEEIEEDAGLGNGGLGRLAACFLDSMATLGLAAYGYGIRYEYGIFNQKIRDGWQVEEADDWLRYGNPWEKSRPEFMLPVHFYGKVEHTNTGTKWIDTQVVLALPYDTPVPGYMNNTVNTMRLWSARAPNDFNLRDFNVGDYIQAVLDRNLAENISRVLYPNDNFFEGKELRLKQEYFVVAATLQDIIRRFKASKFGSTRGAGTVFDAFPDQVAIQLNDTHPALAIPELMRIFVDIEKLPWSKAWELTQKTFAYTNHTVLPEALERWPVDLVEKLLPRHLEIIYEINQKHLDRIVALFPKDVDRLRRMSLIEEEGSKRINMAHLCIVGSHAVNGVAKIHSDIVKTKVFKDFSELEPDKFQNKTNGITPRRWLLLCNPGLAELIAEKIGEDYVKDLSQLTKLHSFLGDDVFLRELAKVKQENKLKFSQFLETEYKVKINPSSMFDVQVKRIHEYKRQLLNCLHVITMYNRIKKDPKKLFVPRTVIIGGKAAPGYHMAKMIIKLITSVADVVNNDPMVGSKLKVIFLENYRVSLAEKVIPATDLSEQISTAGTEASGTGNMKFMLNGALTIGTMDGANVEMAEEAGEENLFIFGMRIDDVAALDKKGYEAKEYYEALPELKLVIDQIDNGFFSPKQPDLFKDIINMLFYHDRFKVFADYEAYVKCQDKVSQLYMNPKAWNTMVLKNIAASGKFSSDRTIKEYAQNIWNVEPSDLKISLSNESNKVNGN
Nature of the series: Inhibition of human recombinant liver glycogen phosphorylase A expressed in baculovirus infected Sf9 insect cells assessed as release of phosphate from glucose-1- phosphate in presence of 7.5 mM glucose by malachite green based assay.

For series [5], the target named is T1, Glycogen phosphorylase, muscle form. Nature of the series: Inhibition of rabbit muscle glycogen phosphorylase b using […] preincubated for 60 mins followed by substrate addition in presence of glycogen.
Series [6] deals with T3, Glycogen phosphorylase, muscle form (Oryctolagus cuniculus) (UniProt P00489).
T3 sequence (whole entry): T1 sequence (P00489 whole entry)
Kind of series: Inhibition of rabbit skeletal muscle glycogen phosphorylase b assessed as inorganic phosphate release using glucose-1-phosphate as substrate at pH 6.8 at 500 uM.

The target of series [7] is T3, Glycogen phosphorylase, muscle form (Oryctolagus cuniculus). Kind of series: Inhibition of rabbit skeletal muscle glycogen phosphorylase b assessed as inorganic phosphate release using glucose-1-phosphate as substrate at pH 6.8 at 1000 uM.
Series [8] shares this target. Kind of series: Inhibition of rabbit skeletal muscle glycogen phosphorylase b assessed as inorganic phosphate release using glucose-1-phosphate as substrate at pH 6.8 at 300 uM.
For series [9] the target is unchanged. Kind of series: Inhibition of rabbit skeletal muscle glycogen phosphorylase b assessed as inorganic phosphate release using glucose-1-phosphate as substrate at pH 6.8 at 200 uM.
Series [10] shares this target. Kind of series: Inhibition of rabbit skeletal muscle glycogen phosphorylase b assessed as inorganic phosphate release using glucose-1-phosphate as substrate at pH 6.8 at 250 uM.

Turning to `Cc1nn(-c2ccccc2)c(C)c1/N=N/c1ccc(-c2nc3ccccc3[nH]2)cc1`, the solubility result in series [1] is listed as “Insoluble”.

Regarding `O=S(=O)(Nc1ccc(-c2nc3ccccc3[nH]2)cc1)c1ccccc1`, the solubility entry in series [1] is “Insoluble”; in series [2], “Soluble”. In addition, the IC50 in series [3] stood at 324 µM.

Regarding `O=C(CCl)Nc1ccc(-c2nc3ccccc3[nH]2)cc1`, the solubility result in series [1] was “Insoluble”; in [2], “Soluble”.

On to `S=C1N=C(Nc2ccc(-c3nc4ccccc4[nH]3)cc2)CN1`, for which, in series [1], the solubility entry is given as “Insoluble”.

As for `O=C1N=C(Nc2ccc(-c3nc4ccccc4[nH]3)cc2)CN1`, the solubility result in series [1] was “Insoluble”.

Turning to `N=C1N=C(Nc2ccc(-c3nc4ccccc4[nH]3)cc2)CN1`, in [1], the solubility result was “Insoluble”.

For the molecule `O=C(N[C@@H](Cc1ccc(F)cc1)C(=O)C(=O)N1CCC(O)CC1)c1cc2cc(Cl)ccc2[nH]1`, the results for the half-inhibitory concentration (IC50) in [4] and in [5] were 0.2 µM and 0.178 µM, respectively.

`O=C1N=C(Nc2ccc(-c3nc4ccccc4[nH]3)cc2)CNN1`: in series [1], the solubility entry was “Insoluble”. In addition, in series [3], the IC50 is 437 µM.

For `Nc1ccc(-c2nc3ccccc3[nH]2)cc1`, the solubility entry in series [1] is given as “Insoluble”.

Turning to `c1ccc2[nH]c(-c3ccc(NC4=NCCNC4)cc3)nc2c1`, the solubility entry in series [1] was “Insoluble”.

On to `O=c1[nH][nH]c(O)c1/N=N/c1ccc(-c2nc3ccccc3[nH]2)cc1`, for which the solubility entry in [1] is listed as “Insoluble”. Moreover, in series [6], the inhibition turned out to be 29.4%.

Take `O=C(O)/C=C/C(=O)Nc1ccc(-c2nc3ccccc3[nH]2)cc1`: in [1], the solubility entry is reported as “Insoluble”. Besides, the inhibition in series [7] came out at 45%.

As to `O=C(NC(=O)c1cc(F)c(F)cc1Cl)Nc1ccsc1-c1n[nH]c(=O)o1`, in series [4], the 50% inhibitory concentration (IC50) came to 30 µM.

Regarding `CCOC(=O)C(=NNc1ccc(-c2nc3ccccc3[nH]2)cc1)C(=O)OCC`, the results for the solubility result in series [1] and in series [2] were “Insoluble” and “Soluble”, respectively.

Turning to `Cc1n[nH]c(C)c1/N=N/c1ccc(-c2nc3ccccc3[nH]2)cc1`, the solubility entry in series [1] is “Insoluble”.

Take `S=C1N=C(Nc2ccc(-c3nc4ccccc4[nH]3)cc2)CNN1`: the solubility result was “Insoluble” in [1] and “Soluble” in [2].

`O=C(O)c1cc(Nc2ccc(-c3nc4ccccc4[nH]3)cc2)n(-c2ccccc2)n1`: in series [1], the solubility result was “Insoluble”. For the same molecule, the inhibition in [8] amounted to 25%.

Take `Oc1nc(=S)[nH]c(O)c1/N=N/c1ccc(-c2nc3ccccc3[nH]2)cc1`: the solubility result in series [1] is on record as “Insoluble”. The inhibition in series [9] stood at 16.1%.

As to `O=[N+]([O-])c1ccccc1S(=O)(=O)Nc1ccc(-c2nc3ccccc3[nH]2)cc1`, the solubility entry is recorded as “Insoluble” in series [1] and “Soluble” in [2]. Further, the IC50 in series [3] was found to be 358 µM.

In the case of `CC(=O)C(/N=N/c1ccc(-c2nc3ccccc3[nH]2)cc1)=C(/C)O`, the solubility entry in series [1] is reported as “Insoluble”; in series [2] it was “Soluble”.

Turning to `Cc1ccc(S(=O)(=O)Nc2ccc(-c3nc4ccccc4[nH]3)cc2)cc1`, the solubility entry in series [1] is “Insoluble”; in series [2] it was “Soluble”. The inhibition in [6] was 20.7%.

For the molecule `CC(=O)C/C(C)=N/c1ccc(-c2nc3ccccc3[nH]2)cc1`, the solubility entry in series [1] is reported as “Insoluble”; in series [2] it was “Soluble”. Also, the inhibition in [9] worked out at 7%.

In the case of `O=C(O)c1cc(Nc2ccc(-c3nc4ccccc4[nH]3)cc2)n(-c2ccc([N+](=O)[O-])cc2)n1`, the solubility entry in series [1] was “Insoluble”. In addition, the inhibition in [10] worked out at 8.1%.

Consider `Cc1nn(-c2ccc([N+](=O)[O-])cc2)c(C)c1/N=N/c1ccc(-c2nc3ccccc3[nH]2)cc1`, for which, in series [1], the solubility entry is recorded as “Insoluble”. Moreover, in series [3], the IC50 is 532 µM.

Turning to `CN(C)C(=O)[C@H](O)[C@H](Cc1ccccc1)NC(=O)c1cc2cc(Cl)ccc2[nH]1`, in [4], the IC50 worked out at 0.082 µM.

As for `O=C(O)c1cc(Nc2ccc(-c3nc4ccccc4[nH]3)cc2)[nH]n1`, the solubility entry in [1] and in series [2] was “Insoluble” each time.

By IC50 is commonly meant the concentration that gives 50% inhibition. In general, inhibition refers to the change of the read-out against control, counted positive when it falls.
